# In ChEMBL document CHEMBL5226321, “Ivermectin: A Promising Therapeutic for Fighting Malaria. Current Status and Perspective” (J Med Chem, 2021):
# What was measured:
# Anopheles arabiensis [1] = experiment: Insecticidal in Anopheles arabiensis assessed as mean survival fed with blood of compound treated human at 12 mg, administered as a single dose observed at 2 days post treatment; type: functional, organism-based; settings: time 2.0 day
# Anopheles sp. [2] = experiment: Insecticidal in Anopheles sp. infected with Plasmodium falciparum gametocytes assessed as mortality fed with compound treated bovine blood at 200 microg/kg observed within 5.5 days feeding at 15 days post treatment relative to control; type: functional, organism-based; settings: dose 200.0 µg/kg, time 5.5 day
# Anopheles arabiensis [3] = experiment: Insecticidal in Anopheles arabiensis assessed as mortality fed with compound treated bovine blood at 200 microg/kg observed within 2 to 4 days after blood feeding relative to control; type: functional, organism-based; settings: dose 200.0 µg/kg, time 2-4 day
# Anopheles stephensi [4] = experiment: Insecticidal in Anopheles stephensi assessed as mortality rate fed with blood of compound treated rabbits at 0.34 mg/kg, sc 4 to 6 days post-injection relative to control; type: functional, organism-based; settings: time 4-6 day
# Anopheles sp. [5] = experiment: In vivo Insecticidal in Anopheles sp. assessed as lethality membrane-fed with compound treated human blood at 400 microg/kg per day in presence of combination of 120 mg dihydroartemisinin, 960 mg piperaquine and 30 mg primaquine observed after 7 days; type: functional, organism-based; settings: dose 400.0 µg/kg, time 7.0 day
# Anopheles sp. [6] = experiment: Insecticidal in Anopheles sp. assessed as mean plasma concentration fed with compound treated pig blood administered as a single dose at 600 microg/kg at 22 day post treatment; type: functional, organism-based; settings: dose 600.0 µg/kg
# Anopheles sp. [7] = experiment: Insecticidal in Anopheles sp. infected with Plasmodium falciparum gametocytes assessed as reduction in fecundity fed with compound treated bovine blood at 200 microg/kg feeding at 21 days after injection relative to control; type: functional, organism-based; set-up: scale not given: the % may be the effect or the level left; settings: dose 200.0 µg/kg
# Anopheles sp. [8] = experiment: Insecticidal in Anopheles sp. infected with Plasmodium falciparum gametocytes assessed as reduction in survival fed with compound treated bovine blood at 200 microg/kg feeding at 28 days after injection relative to control; type: functional, organism-based; settings: dose 200.0 µg/kg
# Anopheles gambiae [9] = experiment: Insecticidal in Anopheles gambiae assessed as median lethal concentration fed with compound treated bovine blood observed after 9 days; type: functional, organism-based; settings: time 9.0 day
# Anopheles sp. [10] = experiment: Insecticidal in Anopheles sp. assessed as mortality rate fed with blood of compound treated human at 200 microg/kg administered once caught on day 2 after mass drug administration observed within 5 days relative to control; type: functional, organism-based; settings: dose 200.0 µg/kg, time 5.0 day
# Anopheles arabiensis [11] = experiment: Insecticidal in Anopheles arabiensis assessed as reduction in fecundity fed with compound treated bovine blood at 200 microg/kg relative to control; type: functional, organism-based; set-up: scale not given: the % may be the effect or the level left; settings: dose 200.0 µg/kg
# Anopheles stephensi [12] = experiment: Insecticidal in Anopheles stephensi assessed as mortality rate membrane-fed with blood of compound treated mouse at 600 microg/kg observed within 6 days relative to control; type: functional, organism-based; settings: dose 600.0 µg/kg, time 6.0 day
# Anopheles sp. [13] = experiment: Insecticidal in Anopheles sp. assessed as mortality rate fed with compound treated human blood at 400 microg/kg observed in 48 hrs relative to control; type: functional, organism-based; settings: dose 400.0 µg/kg
# Plasmodium berghei = experiment: In vivo antimalarial activity against blood stage Plasmodium berghei transfected with GFP infected in mouse assessed as supression of parasitemia at 0.5 mg/kg for 3 days relative to control; type: functional, organism-based; settings: time 3.0 day
# Anopheles sp. [14] = experiment: Insecticidal in Anopheles sp. assessed as lethal concentration fed with compound treated human blood administered as a single dose at 10 microg/ml fed at 4 hrs post treatment; type: functional, organism-based; settings: dose 10.0 µg/ml
# Aedes aegypti [15] = experiment: Insecticidal in Aedes aegypti assessed as mortality rate membrane-fed with compound treated human blood at 10 to 100 microg/mL observed within 7 days relative to control; type: functional, organism-based; settings: dose 10-100 µg/ml, time 7.0 day
# Anopheles arabiensis [16] = experiment: Insecticidal in Anopheles arabiensis assessed as percentage of reduction in mortality in 3 day survivorship fed with compound treated bovine blood at 73 mg observed for 24 weeks relative to control; type: functional, organism-based
# Anopheles sp. [17] = experiment: Insecticidal in Anopheles sp. assessed as lethal concentration membrane-fed with compound treated pig blood; type: functional
# Anopheles sp. [18] = experiment: Insecticidal in Anopheles sp. assessed as lethal concentration membrane-fed with compound treated blood observed after 4 days; type: functional, organism-based; settings: time 4.0 day
# Plasmodium vivax [19] = experiment: Antimalarial activity against Plasmodium vivax assessed as reduction in […] in Anopheles sp. mosquito midgut fed with blood isolated from compound treated parasite-infected human at 40 ng/ml observed after 7 days relative to control; type: functional, organism-based; settings: time 7.0 day
# Anopheles sp. [20] = experiment: In vitro Insecticidal in Anopheles sp. assessed as lethality membrane-fed with compound treated human blood at 400 microg/kg per day in presence of combination of 120 mg dihydroartemisinin, 960 mg piperaquine and 30 mg primaquine observed after 7 days; type: functional, organism-based; settings: dose 400.0 µg/kg, time 7.0 day
# Anopheles sp. [21] = experiment: Insecticidal in Anopheles sp. assessed as reduction in survival rate fed with compound treated human blood at 400 microg/kg observed in 48 hrs relative to control; type: functional, organism-based; settings: dose 400.0 µg/kg
# Anopheles stephensi [22] = experiment: Insecticidal in Anopheles stephensi assessed as lethal concentration membrane-fed with compound treated blood observed after 4 days; type: functional, organism-based; settings: time 4.0 day
# Anopheles sp. [23] = experiment: Insecticidal in Anopheles sp. assessed as mortality fed with treated bovine blood containing 1% of compound observed within 4 days after a blood meal on 7 days post treatment relative to control; type: functional, organism-based; settings: time 4.0 day
# Anopheles sp. [24] = experiment: Insecticidal in Anopheles sp. assessed as egg hatching rate fed with compound treated human blood administered as a single dose at 10 microg/ml fed at 4 hrs post treatment; type: functional, organism-based; settings: dose 10.0 µg/ml
# Anopheles sp. [25] = experiment: Insecticidal in Anopheles sp. infected with Plasmodium vivax assessed as lethality fed with blood isolated from compound treated human observed for 5 days; type: functional, organism-based; settings: time 5.0 day
# Anopheles sp. [26] = experiment: Insecticidal in Anopheles sp. assessed as mortality fed with treated bovine blood containing 1% of compound observed within 4 days after a blood meal on 2 days post treatment relative to control; type: functional, organism-based; settings: time 4.0 day
# Aedes aegypti [27] = experiment: Insecticidal in Aedes aegypti larvae measured after 48 hrs; type: functional
# Anopheles sp. [28] = experiment: Insecticidal in Anopheles sp. infected with Plasmodium falciparum gametocytes assessed as reduction in survival fed with compound treated bovine blood at 200 microg/kg feeding at 2 days after injection relative to control; type: functional, organism-based; settings: dose 200.0 µg/kg
# Anopheles sp. [29] = experiment: Insecticidal in Anopheles sp. assessed as lethal concentration membrane-fed with compound treated blood; type: functional, organism-based
# Anopheles sp. [30] = experiment: Insecticidal in Anopheles sp. infected with Plasmodium vivax assessed as mortality rate fed with blood isolated from compound treated human at 200 microg/kg observed for 5 days; type: functional, organism-based; settings: dose 200.0 µg/kg, time 5.0 day
# Anopheles darlingi = experiment: Insecticidal in Anopheles darlingi infected with Plasmodium vivax assessed as lethal concentration fed with compound treated human blood observed for 7 days; type: functional, organism-based; settings: time 7.0 day
# Plasmodium vivax [31] = experiment: Antimalarial activity against Plasmodium vivax assessed as reduction in infection in Anopheles sp. mosquito midgut fed with blood isolated from compound treated parasite-infected human at 40 ng/ml observed after 7 days relative to control; type: functional, organism-based; settings: time 7.0 day
# Anopheles sp. [32] = experiment: Insecticidal in Anopheles sp. assessed as mortality rate membrane-fed with blood of compound treated mouse at 600 microg/kg observed within 6 days relative to control; type: functional, organism-based; settings: dose 600.0 µg/kg, time 6.0 day
# Plasmodium vivax [33] = experiment: Antimalarial activity against Plasmodium vivax assessed as reduction in […] in Anopheles darlingi mosquito fed with blood containing plasma isolated from compound treated human observed after 4 days relative to control; type: functional, organism-based; settings: time 4.0 day, dose or concentration not given here
# Anopheles sp. [34] = experiment: Insecticidal in Anopheles sp. infected with Plasmodium vivax assessed as percentage of survival midgut fed with blood isolated from compound treated parasite-infected human at 40 ng/ml observed after 7 days relative to control; type: functional, organism-based; settings: time 7.0 day
# Anopheles gambiae [35] = experiment: Insecticidal in Anopheles gambiae G3 assessed as reduction in survivorship fed with blood of compound treated human at 150 microg/kg administered once; type: functional, organism-based; settings: dose 150.0 µg/kg
sequence,measurement,setting,value
IVERMECTIN,Survival,Anopheles arabiensis [1],2.1 days
same,mortality,Anopheles sp. [2],100%
same,mortality,Anopheles arabiensis [3],80%
same,mortality,Anopheles stephensi [4],93%
same,LC50,Anopheles sp. [5],0.00286 mg/L
same,Cp,Anopheles sp. [6],1.4 ng/mL
same,Activity,Anopheles sp. [7],33%
same,Survival,Anopheles sp. [8],23%
same,LC50,Anopheles gambiae [9],19.8 ppb
same,mortality,Anopheles sp. [10],80%
same,Activity,Anopheles arabiensis [11],79%
same,mortality,Anopheles stephensi [12],85%
same,mortality,Anopheles sp. [13],69%
same,Activity,Plasmodium berghei,40%
same,LC5,Anopheles sp. [14],18.3 ng/mL
same,mortality,Aedes aegypti [15],100%
same,mortality,Anopheles arabiensis [16],50%
same,LC50,Anopheles sp. [17],0.0178 mg/L
same,LC50,Anopheles sp. [18],1.47 mg/L
same,inhibition,Plasmodium vivax [19],86%
same,LC50,Anopheles sp. [20],0.0576 mg/L
same,Survival,Anopheles sp. [21],31%
same,LC50,Anopheles stephensi [22],0.007 mg/L
same,mortality,Anopheles sp. [23],80%
same,Activity,Anopheles sp. [24],74.8
same,LC5,Anopheles sp. [25],18.3 ng/mL
same,mortality,Anopheles sp. [26],60%
same,LC50,Aedes aegypti [27],23.4 ppb
same,Survival,Anopheles sp. [28],86%
same,MLC,Anopheles sp. [29],50 ppm
same,mortality,Anopheles sp. [30],50%
same,LC5,Anopheles darlingi,14.8 ng/mL
same,LC25,Anopheles darlingi,0.0278 mg/L
same,LC50,Anopheles darlingi,0.0432 mg/L
same,inhibition,Plasmodium vivax [31],61.3%
same,mortality,Anopheles sp. [32],44%
same,inhibition,Plasmodium vivax [33],99.9%
same,Survival,Anopheles sp. [34],22%
same,LC50,Anopheles gambiae [35],0.0224 mg/L
